From patent US12303592B2, “Formulations for parenteral delivery of compounds and uses thereof” (Wyeth, LLC, priority 2006, dated 2025)

Assay: Effect of 1 mM sodium tungstate on subcutaneous formulation (Table 16), HPLC Method A; on Ring Contraction Degradant: key: BRL=below recordable limit
Format: physicochemical

C[N+]1(CC2CC2)CC[C@]23c4c5ccc(O)c4O[C@H]2C(=O)CC[C@@]3(O)[C@H]1C5 (stereo partly drawn) [MNTX, methylnaltrexone bromide]
7-Dihydroxy MNTX (40° C., 1 hour): BRL | O-Methyl MNTX (40° C., 1 hour): 0.12 | Ring Contraction Degradant (40° C., 1 hour): BRL | Total (40° C., 1 hour): 0.12 | 7-Dihydroxy MNTX (40° C., 2 hours): 0.02 | O-Methyl MNTX (40° C., 2 hours): 0.12 | Ring Contraction Degradant (40° C., 2 hours): BRL | Total (40° C., 2 hours): 0.14 | 7-Dihydroxy MNTX (40° C., 3 hours): 0.02 | O-Methyl MNTX (40° C., 3 hours): 0.12 | Ring Contraction Degradant (40° C., 3 hours): BRL | Total (40° C., 3 hours): 0.14 | 7-Dihydroxy MNTX (40° C., 4 hours): 0.02 | O-Methyl MNTX (40° C., 4 hours): 0.12 | Ring Contraction Degradant (40° C., 4 hours): BRL | Total (40° C., 4 hours): 0.14 | 7-Dihydroxy MNTX (40° C., 5 hours): 0.03 | O-Methyl MNTX (40° C., 5 hours): 0.12 | Ring Contraction Degradant (40° C., 5 hours): BRL | Total (40° C., 5 hours): 0.15 | 7-Dihydroxy MNTX (40° C., Initial): BRL | O-Methyl MNTX (40° C., Initial): 0.12 | Ring Contraction Degradant (40° C., Initial): BRL | Total (40° C., Initial): 0.12 | 7-Dihydroxy MNTX (Room Temperature, 1 hour): BRL | O-Methyl MNTX (Room Temperature, 1 hour): 0.12 | Ring Contraction Degradant (Room Temperature, 1 hour): BRL | Total (Room Temperature, 1 hour): 0.12 | 7-Dihydroxy MNTX (Room Temperature, 2 hours): 0.02 | O-Methyl MNTX (Room Temperature, 2 hours): 0.12 | Ring Contraction Degradant (Room Temperature, 2 hours): BRL | Total (Room Temperature, 2 hours): 0.14 | 7-Dihydroxy MNTX (Room Temperature, 3 hours): 0.02 | O-Methyl MNTX (Room Temperature, 3 hours): 0.12 | Ring Contraction Degradant (Room Temperature, 3 hours): BRL | Total (Room Temperature, 3 hours): 0.14 | 7-Dihydroxy MNTX (Room Temperature, 4 hours): 0.02 | O-Methyl MNTX (Room Temperature, 4 hours): 0.12 | Ring Contraction Degradant (Room Temperature, 4 hours): BRL | Total (Room Temperature, 4 hours): 0.14 | 7-Dihydroxy MNTX (Room Temperature, 5 hours): 0.02 | O-Methyl MNTX (Room Temperature, 5 hours): 0.12 | Ring Contraction Degradant (Room Temperature, 5 hours): BRL | Total (Room Temperature, 5 hours): 0.14 | 7-Dihydroxy MNTX (Room Temperature, Initial): BRL | O-Methyl MNTX (Room Temperature, Initial): 0.12 | Ring Contraction Degradant (Room Temperature, Initial): BRL | Total (Room Temperature, Initial): 0.12
